Converted amounts (≈) assume the structure as drawn. Where two headings read alike, the source gives them in different places.
What was measured:
adult S. mansoni = experiment: Phenotypic screen of adult S. mansoni worms, severity scores and descriptors; type: cell-based, Schistosoma mansoni; details: for Descriptors (10 µM) 1 h / Severity Scores (10 μM) 1 h / Descriptors (10 µM) 5 h / Severity Scores (10 μM) 5 h / Descriptors (10 µM) 24 h / Severity Scores (10 μM) 24 h / Descriptors (10 µM) 48 h / Severity Scores (10 μM) 48 h: adult S. mansoni; for Descriptors (10 µM) 1 h / Descriptors (10 µM) 5 h / Descriptors (10 µM) 24 h / Descriptors (10 µM) 48 h: phenotypic descriptors; for Severity Scores (10 μM) 1 h / Severity Scores (10 μM) 5 h / Severity Scores (10 μM) 24 h / Severity Scores (10 μM) 48 h: scale 0 (no activity) to 4 (maximal activity); for bioactivity against adult S. mansoni: adult schistosomes; for Severity Scores (10 μM) 1 h / Severity Scores (10 μM) 5 h / Severity Scores (10 μM) 24 h / Severity Scores (10 μM) 48 h / bioactivity against adult S. mansoni: 10 μM
Summary of the method: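 Adult S. mansoni (NMRI isolate, ≥42 days old) were co-incubated with compounds and changes in motility, density, shape and adherence recorded visually over time and concentration. Descriptors converted to severity scores from 0 (no activity) to 4 (maximal).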

HepG2 cells = experiment: Drug toxicity to HepG2 cells (MTT); type: cell-based; details: HepG2 cells, 48 hours incubation, MTT
[1] = Aqueous pH 7.4 solubility; type: physicochemical; details: phosphate buffer pH 7.4, 25 °C, 20-24 h, read-out: aq sol (aqueous solubility)
[2] = Human liver microsomal Clint; type: in vitro ADME; details: human liver microsomes, intrinsic clearance; for microsomal CLint: read-out: HLM Clint
Rat hepatocyte Clint = type: in vitro ADME; details: rat hepatocytes, intrinsic clearance; for hepatocyte CLint: read-out: RH CLint
[3] = Log D7.4 shake-flask octanol-water; type: physicochemical; details: pH 7.4
[4] = Human plasma protein binding (equilibrium dialysis); type: in vitro ADME; details: for fraction unbound at 10 µM: pH 7.4, 37 °C, read-out: human PPB (plasma protein binding) (converted); for human PPB (plasma protein binding): 10 µM, 37 °C
[5] = aqueous buffer, thermodynamic from solid

SMILES | Descriptors (10 µM) 1 h (adult S. mansoni) | Severity Scores (10 μM) 1 h (adult S. mansoni) | Descriptors (10 µM) 5 h (adult S. mansoni) | Severity Scores (10 μM) 5 h (adult S. mansoni) | Descriptors (10 µM) 24 h (adult S. mansoni) | Severity Scores (10 μM) 24 h (adult S. mansoni) | Descriptors (10 µM) 48 h (adult S. mansoni) | Severity Scores (10 μM) 48 h (adult S. mansoni) | HepG2 TC50 (HepG2 cells) [µM] | solubility [1] [µM] | HLM Clint [2] [μL/min/mg protein] | RH CLint (Rat hepatocyte Clint) [µL/min/10^6 cells] | LogD 7.4 [3] | bioactivity against adult S. mansoni (adult S. mansoni) | solubility [1, 5] [µM] | fraction unbound at 10 µM [4] | microsomal CLint [2] [µL/min/mg] | hepatocyte CLint (Rat hepatocyte Clint) [µL/min/1e6 cells] | logD [3] | human PPB (plasma protein binding) [4] [%]
CN(C)CCN(C)c1ncc(-c2ccc3c(Nc4cnccn4)ccnc3c2)cn1 [S2c] | none | 0 | none | 0 | none | 0 | none | 0 | > 38 | 630 (≈ 252 µg/mL) | 45 | 55 | 2.3 | – | – | – | – | – | – | –
CN1CCCN(S(=O)(=O)c2ccc(-c3ccc4c(Nc5ccc(Cl)cn5)ccnc4c3)cc2)CC1 [5f] | – | 2 | S, on sides | 2 | Dark, S | 2 | Dark, S | 2 | – | – | – | – | – | moderate bioactivity recorded after 1 h | 4 (≈ 2.03 µg/mL) | < 0.01 | 300 | 30 | 4.5 | –
CN1CCCN(c2ncc(-c3ccc4c(Nc5ccncn5)ccnc4c3)cn2)CC1 [5c] | none | 0 | none | 0 | none | 0 | none | 0 | – | – | – | – | – | complete loss in activity | 930 (≈ 384 µg/mL) | 0.34 | 74 | 82 | 2.2 | –
C[C@@H]1CNCCN1C(=O)c1ccc(-c2cccc(N3CCOCC3)c2)cc1N [S4d] | none | 0 | none | 0 | none | 0 | none | 0 | > 40 | 950 (≈ 361 µg/mL) | – | – | 1 | – | – | – | – | – | – | 63
C[C@@H]1CNCCN1C(=O)c1ccc(-c2cnc(N3CCCN(C)CC3)nc2)cc1N [S4c] | none | 0 | none | 0 | none | 0 | – | – | > 37 | 930 (≈ 381 µg/mL) | – | 2.6 | -0.4 | – | – | – | – | – | – | 42
COc1ccc(Nc2ccnc3cc(-c4ccc(S(=O)(=O)N5CCCN(C)CC5)cc4)ccc23)cc1Cl [5e] | none | 0 | none | 0 | none | 0 | none | 0 | – | – | – | – | – | complete loss of bioactivity | 0.3 (≈ 0.161 µg/mL) | 0.01 | 300 | 15 | 4.4 | –
CN1CCCN(c2ccc(Nc3ccc4c(Nc5cnccn5)ccnc4c3)cc2)CC1 [S3k] | none | 0 | none | 0 | S, on sides | 2 | S, on sides | 2 | 17 | – | – | – | – | – | – | – | 30 | 14 | – | –
C[S+]([O-])CCNc1ncc(-c2ccc3c(Nc4cnccn4)ccnc3c2)cn1 (stereo not shown) [S2b] | none | 0 | none | 0 | none | 0 | – | – | > 37 | 11 (≈ 4.46 µg/mL) | 6 | 7.6 | 1.7 | – | – | – | – | – | – | –
Cc1ccc2[nH]c3c4ccc(-c5cnc(N6CCCN(C)CC6)nc5)cc4ncc3c2c1 [6c] | – | 3 | – | 4 | – | 4 | – | 4 | – | – | – | – | – | severe bioactivity after 1 h | 14 (≈ 5.92 µg/mL) | < 0.01 | 130 | 7 | 5 | –
